Reference: the supplement of paper PMC10307832

Legend:
Assay in all cases: relative viability (nuclei count vs DMSO), 5 days (fraction); higher = more cells survive
[1] = compound: O=C(/C=C/c1cccnc1)NCCCCC1CCN(C(=O)c2ccccc2)CC1 [Daporinad] + Cc1nc(NC(=O)N2CCC[C@H]2C(N)=O)sc1-c1ccnc(C(C)(C)C(F)(F)F)c1 [Alpelisib] (partner 2 µM)
Procedure, shortened: (§1)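 For relative viability, nuclei counts in treated wells were divided by those in vehicle wells. Lung cancer cell lines had been pin-tool dosed in 1536-well plates the day after seeding and cultured for 5 days, then fixed and stained in one step (final 0.05% Triton X-100, 1% formaldehyde, 1 ug/ml Hoechst) and imaged at 4×. Doses were one drug alone or a fixed anchor-drug dose plus five library-drug doses (not always all listed) in √10 steps, and values are duplicate-plate medians.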

[2] = compound: O=C(/C=C/c1cccnc1)NCCCCC1CCN(C(=O)c2ccccc2)CC1 [Daporinad] + COc1cccc2cc(-c3nc([C@H]4CC[C@H](C(=O)O)CC4)n4ncnc(N)c34)[nH]c12 [OSI-027] (partner 0.5 µM)
Procedure, shortened: as §1

[3] = compound: O=C(/C=C/c1cccnc1)NCCCCC1CCN(C(=O)c2ccccc2)CC1 [Daporinad] + C[C@]1(O)C[C@@H](c2nc(-c3ccc4ccc(-c5ccccc5)nc4c3)c3c(N)nccn32)C1 [Linsitinib] (partner 1 µM)
Procedure, shortened: as §1

[4] = compound: O=C(/C=C/c1cccnc1)NCCCCC1CCN(C(=O)c2ccccc2)CC1 [Daporinad] + O=C(CCCCCCC(=O)Nc1ccccc1)NO [Vorinostat] (partner 1 µM)
Procedure, shortened: as §1

Q: Which relative viability ([1]; first compound 0.0005 µM) does the source give for NCI-H520 here?
A: 0.967

Q: And the relative viability ([1]; first compound 0.001581 µM)?
A: 0.546

Q: What about the relative viability ([1]; first compound 0.005 µM) of the same cell line?
A: 0.196

Q: What about the relative viability ([1]; first compound 0.01581 µM) of the same cell line?
A: 0.166

Q: What about the relative viability ([2]; first compound 0.0005 µM) of the same cell line?
A: 0.245

Q: And the relative viability ([2]; first compound 0.001581 µM)?
A: 0.222

Q: What about the relative viability ([2]; first compound 0.005 µM) of the same cell line?
A: 0.328

Q: And the relative viability ([2]; first compound 0.01581 µM)?
A: 0.234

Q: And the relative viability ([3]; first compound 0.0005 µM)?
A: 0.87

Q: And the relative viability ([3]; first compound 0.001581 µM)?
A: 0.445

Q: What about the relative viability ([3]; first compound 0.005 µM) of the same cell line?
A: 0.177

Q: And the relative viability ([3]; first compound 0.01581 µM)?
A: 0.149

Q: And the relative viability ([4]; first compound 0.0005 µM)?
A: 0.747

Q: And the relative viability ([4]; first compound 0.001581 µM)?
A: 0.284

Q: And the relative viability ([4]; first compound 0.005 µM)?
A: 0.228

Q: And the relative viability ([4]; first compound 0.01581 µM)?
A: 0.165

Q: Which results are given for EKVX?
A: relative viability ([1]; first compound 0.0005 µM): 0.83; relative viability ([1]; first compound 0.001581 µM): 0.87; relative viability ([1]; first compound 0.005 µM): 0.873; relative viability ([1]; first compound 0.01581 µM): 1.18; relative viability ([2]; first compound 0.0005 µM): 0.692; relative viability ([2]; first compound 0.001581 µM): 0.738; relative viability ([2]; first compound 0.005 µM): 0.683; relative viability ([2]; first compound 0.01581 µM): 0.806; relative viability ([3]; first compound 0.0005 µM): 1.04; relative viability ([3]; first compound 0.001581 µM): 1.09; relative viability ([3]; first compound 0.005 µM): 0.913; relative viability ([3]; first compound 0.01581 µM): 1.18; relative viability ([4]; first compound 0.0005 µM): 0.621; relative viability ([4]; first compound 0.001581 µM): 0.825; relative viability ([4]; first compound 0.005 µM): 0.841; relative viability ([4]; first compound 0.01581 µM): 0.851

Q: For NCI-H1944, which relative viability ([1]; first compound 0.0005 µM) is on record?
A: 0.892

Q: What about the relative viability ([1]; first compound 0.001581 µM) of the same cell line?
A: 0.907

Q: What about the relative viability ([1]; first compound 0.005 µM) of the same cell line?
A: 0.822

Q: What about the relative viability ([1]; first compound 0.01581 µM) of the same cell line?
A: 0.844

Q: And the relative viability ([2]; first compound 0.0005 µM)?
A: 0.447

Q: And the relative viability ([2]; first compound 0.001581 µM)?
A: 0.422

Q: What about the relative viability ([2]; first compound 0.005 µM) of the same cell line?
A: 0.527

Q: What about the relative viability ([2]; first compound 0.01581 µM) of the same cell line?
A: 0.517

Q: And the relative viability ([3]; first compound 0.0005 µM)?
A: 1.17

Q: What about the relative viability ([3]; first compound 0.001581 µM) of the same cell line?
A: 1.26

Q: And the relative viability ([3]; first compound 0.005 µM)?
A: 1.34

Q: And the relative viability ([3]; first compound 0.01581 µM)?
A: 1.25

Q: And the relative viability ([4]; first compound 0.0005 µM)?
A: 0.57

Q: What about the relative viability ([4]; first compound 0.001581 µM) of the same cell line?
A: 0.524

Q: And the relative viability ([4]; first compound 0.005 µM)?
A: 0.647

Q: What about the relative viability ([4]; first compound 0.01581 µM) of the same cell line?
A: 0.613

Q: Which results are given for EPLC-272H?
A: relative viability ([1]; first compound 0.0005 µM): 0.942; relative viability ([1]; first compound 0.001581 µM): 1.02; relative viability ([1]; first compound 0.005 µM): 0.84; relative viability ([1]; first compound 0.01581 µM): 1.08; relative viability ([2]; first compound 0.0005 µM): 0.243; relative viability ([2]; first compound 0.001581 µM): 0.298; relative viability ([2]; first compound 0.005 µM): 0.316; relative viability ([2]; first compound 0.01581 µM): 0.365; relative viability ([3]; first compound 0.0005 µM): 1.11; relative viability ([3]; first compound 0.001581 µM): 1.32; relative viability ([3]; first compound 0.005 µM): 1.31; relative viability ([3]; first compound 0.01581 µM): 1.4; relative viability ([4]; first compound 0.0005 µM): 0.408; relative viability ([4]; first compound 0.001581 µM): 0.531; relative viability ([4]; first compound 0.005 µM): 0.401; relative viability ([4]; first compound 0.01581 µM): 0.294

Q: Which results are given for NCI-H1395?
A: relative viability ([1]; first compound 0.0005 µM): 0.987; relative viability ([1]; first compound 0.001581 µM): 1.16; relative viability ([1]; first compound 0.005 µM): 1.39; relative viability ([1]; first compound 0.01581 µM): 1.31; relative viability ([2]; first compound 0.0005 µM): 0.644; relative viability ([2]; first compound 0.001581 µM): 0.64; relative viability ([2]; first compound 0.005 µM): 0.71; relative viability ([2]; first compound 0.01581 µM): 0.739; relative viability ([3]; first compound 0.0005 µM): 1.01; relative viability ([3]; first compound 0.001581 µM): 1.23; relative viability ([3]; first compound 0.005 µM): 0.999; relative viability ([3]; first compound 0.01581 µM): 1.44; relative viability ([4]; first compound 0.0005 µM): 0.627; relative viability ([4]; first compound 0.001581 µM): 0.795; relative viability ([4]; first compound 0.005 µM): 0.94; relative viability ([4]; first compound 0.01581 µM): 0.794

Q: How did the relative viability ([1]; first compound 0.0005 µM) turn out when NCI-H2126 was run?
A: 0.734

Q: And the relative viability ([1]; first compound 0.001581 µM)?
A: 0.758

Q: What about the relative viability ([1]; first compound 0.005 µM) of the same cell line?
A: 0.777

Q: And the relative viability ([1]; first compound 0.01581 µM)?
A: 0.813

Q: What about the relative viability ([2]; first compound 0.0005 µM) of the same cell line?
A: 0.718

Q: And the relative viability ([2]; first compound 0.001581 µM)?
A: 0.592

Q: What about the relative viability ([2]; first compound 0.005 µM) of the same cell line?
A: 0.689

Q: And the relative viability ([2]; first compound 0.01581 µM)?
A: 0.756

Q: What about the relative viability ([3]; first compound 0.0005 µM) of the same cell line?
A: 0.686

Q: And the relative viability ([3]; first compound 0.001581 µM)?
A: 0.75

Q: And the relative viability ([3]; first compound 0.005 µM)?
A: 0.719

Q: What about the relative viability ([3]; first compound 0.01581 µM) of the same cell line?
A: 0.683

Q: And the relative viability ([4]; first compound 0.0005 µM)?
A: 0.862

Q: And the relative viability ([4]; first compound 0.001581 µM)?
A: 0.836

Q: And the relative viability ([4]; first compound 0.005 µM)?
A: 0.948

Q: And the relative viability ([4]; first compound 0.01581 µM)?
A: 0.91

Q: LXF-289 was tested. Which relative viability ([1]; first compound 0.0005 µM) did it give?
A: 0.977

Q: What about the relative viability ([1]; first compound 0.001581 µM) of the same cell line?
A: 1.09

Q: What about the relative viability ([1]; first compound 0.005 µM) of the same cell line?
A: 1.04

Q: And the relative viability ([1]; first compound 0.01581 µM)?
A: 1.15

Q: What about the relative viability ([2]; first compound 0.0005 µM) of the same cell line?
A: 0.731

Q: What about the relative viability ([2]; first compound 0.001581 µM) of the same cell line?
A: 0.855

Q: What about the relative viability ([2]; first compound 0.005 µM) of the same cell line?
A: 0.89

Q: And the relative viability ([2]; first compound 0.01581 µM)?
A: 0.89

Q: And the relative viability ([3]; first compound 0.0005 µM)?
A: 0.904

Q: What about the relative viability ([3]; first compound 0.001581 µM) of the same cell line?
A: 0.972

Q: What about the relative viability ([3]; first compound 0.005 µM) of the same cell line?
A: 1

Q: What about the relative viability ([3]; first compound 0.01581 µM) of the same cell line?
A: 1.1

Q: What about the relative viability ([4]; first compound 0.0005 µM) of the same cell line?
A: 0.692

Q: And the relative viability ([4]; first compound 0.001581 µM)?
A: 0.937

Q: And the relative viability ([4]; first compound 0.005 µM)?
A: 0.794

Q: What about the relative viability ([4]; first compound 0.01581 µM) of the same cell line?
A: 0.96

Q: How did the relative viability ([1]; first compound 0.0005 µM) turn out when NCI-H2009 was run?
A: 1.17

Q: What about the relative viability ([1]; first compound 0.001581 µM) of the same cell line?
A: 1.15

Q: And the relative viability ([1]; first compound 0.005 µM)?
A: 1.21

Q: And the relative viability ([1]; first compound 0.01581 µM)?
A: 1.07

Q: And the relative viability ([2]; first compound 0.0005 µM)?
A: 0.599

Q: What about the relative viability ([2]; first compound 0.001581 µM) of the same cell line?
A: 0.739

Q: What about the relative viability ([2]; first compound 0.005 µM) of the same cell line?
A: 0.614

Q: And the relative viability ([2]; first compound 0.01581 µM)?
A: 0.381

Q: What about the relative viability ([3]; first compound 0.0005 µM) of the same cell line?
A: 1.25

Q: And the relative viability ([3]; first compound 0.001581 µM)?
A: 1.21

Q: What about the relative viability ([3]; first compound 0.005 µM) of the same cell line?
A: 1.2

Q: What about the relative viability ([3]; first compound 0.01581 µM) of the same cell line?
A: 0.735

Q: What about the relative viability ([4]; first compound 0.0005 µM) of the same cell line?
A: 0.745

Q: What about the relative viability ([4]; first compound 0.001581 µM) of the same cell line?
A: 0.79

Q: What about the relative viability ([4]; first compound 0.005 µM) of the same cell line?
A: 0.708

Q: And the relative viability ([4]; first compound 0.01581 µM)?
A: 0.347
